Values joined by “and” are separate entries in the source; they are usually repeats but may differ in a detail not shown here. Equal entries are not always repeated.
Tested on: MEK
Assay: Cellular assay for measuring MEK inhibition, C26CPA1 (inhibition of ERK phosphorylation in C26 cells)
Type: cell-based, murine
Settings: for IC50: murine colon 26 (C26) carcinoma cells, one hour at 37 C; for C26CPA1 % Inhibition @ 1 μM / C26CPA1 % Inhibition @ 0.1 μM: C26 cells
Description: Cellular Assay for Measuring MEK Inhibition
MEK inhibitors were evaluated by determining their ability to inhibit phosphorylation of MAP kinase (ERK) in murine colon 26 (C26) carcinoma cells. Since ERK1 and ERK2 represent the only known substrates for MEK1 and MEK2, the measurement of inhibition of ERK phosphorylation in cells provides direct read out of cellular MEK inhibition by the compounds of the invention. Detection of phosphorylation of ERK was carried out either by Western blot or ELISA format. Briefly, the assays involve treatment of exponentially growing C26 cells with varying concentrations of the test compound (or vehicle control) for one hour at 37≡ C. For Western blot assay, cells were rinsed free of compound/vehicle and lysed in a solution containing 70 mM NaCl, 50 mM glycerol phosphate, 10 mM HEPES, […], 1% Triton X-100, 1 mM Na3VO4, 100 μM PMSF, 10 μM leupeptin and 10 μM pepstatin. Supernatants were then subjected to gel electrophoresis and hybridized to a primary antibody recognizing dually phosphorylated ERK1 and ERK2. To evaluate total MAPK levels, blots were subsequently ‘stripped’ and re-probed with a 1:1 mixture of polyclonal antibodies recognizing unphosphorylated ERK1 and ERK2. For pERK ELISA assay, pERK TiterZyme Enzyme immunometric Assay kits were acquired from Assay Designs, Inc (Ann Arbor, Mich.). Briefly, cells were harvested in lysis solution containing 50 mM β-glycerophosphate, 10 mM HEPES, pH7.4, 70 mM NaCl, 2 mM EDTA and 1% SDS and protein lysates were diluted 1:15 with supplied Assay buffer prior to the execution of the assay. The subsequent steps were carried out essentially as recommended by the manufacturer.

Compound	IC50 [nM]	C26CPA1 % Inhibition @ 1 μM	C26CPA1 % Inhibition @ 0.1 μM [%]
CCOCCCNc1nnc(-c2ccc(F)c(F)c2Nc2ccc(I)cc2F)o1 [Example 56, {5-[3,4-Difluoro-2-(2-fluoro-4-iodo-phenylamino)-phenyl]-[1,3,4]oxadiazol-2-yl}-(3-ethoxy-propyl)-amine]	44		
CNCCNc1nnc(-c2ccc(F)c(F)c2Nc2ccc(I)cc2F)o1 [Example 18, N-{5-[3,4-Difluoro-2-(2-fluoro-4-iodo-phenylamino)-phenyl]-[1,3,4]oxadiazol-2-yl}-N′-methyl-ethane-1,2-diamine]	27		
CCc1ccc(Nc2c(-c3nnc(N4CCCC4)o3)ccc(F)c2F)c(F)c1 [Example 75, [2,3-Difluoro-6-(5-pyrrolidin-1-yl-1,3,4-oxadiazol-2-yl)-phenyl]-(4-ethyl-2-fluoro-phenyl)-amine]		39.1% and 30.6%	
Cn1cnc(CCNc2nnc(-c3ccc(F)c(F)c3Nc3ccc(I)cc3F)o2)c1 [Example 53, {5-[3,4-Difluoro-2-(2-fluoro-4-iodo-phenylamino)-phenyl]-[1,3,4]oxadiazol-2-yl}-[2-(1-methyl-1H-imidazol-4-yl)-ethyl]-amine]	230		
NCCCNc1nnc(-c2ccc(F)c(F)c2Nc2ccc(I)cc2F)o1 [Example 15, N′1′-{5-[3,4-Difluoro-2-(2-fluoro-4-iodo-phenylamino)-phenyl]-[1,3,4]oxadiazol-2-yl}-propane-1,3-diamine]	76		
CCc1ccc(Nc2c(-c3nnc(N4CCN(C)CC4)o3)ccc(F)c2F)c(F)c1 [Example 112, {2,3-Difluoro-6-[5-(4-methyl-piperazin-1-yl)-1,3,4-oxadiazol-2-yl]-phenyl}-(4-ethyl-2-fluoro-phenyl)-amine]		84%	62.6
CCc1ccc(Nc2c(-c3nnc(N4CCN(Cc5ccccn5)CC4)o3)ccc(F)c2F)c(F)c1 [Example 123, {2,3-Difluoro-6-[5-(4-pyridin-2-ylmethyl-piperazin-1-yl)-1,3,4-oxadiazol-2-yl]-phenyl}-(4-ethyl-2-fluoro-phenyl)-amine]		0%	0
Fc1cc(I)ccc1Nc1c(-c2nnc(NCCc3ccncc3)o2)ccc(F)c1F [Example 35, {5-[3,4-Difluoro-2-(2-fluoro-4-iodo-phenylamino)-phenyl]-[1,3,4]oxadiazol-2-yl}-(2-pyridin-4-yl-ethyl)-amine]		74.9%	0
CC(Nc1nnc(-c2ccc(F)c(F)c2Nc2ccc(I)cc2F)o1)C(C)(C)C (stereo not shown) [Example 49, {5-[3,4-Difluoro-2-(2-fluoro-4-iodo-phenylamino)-phenyl]-[1,3,4]oxadiazol-2-yl}-(1,2,2-trimethyl-propyl)-amine]		0%	0
CN(CCc1ccncc1)c1nnc(-c2ccc(F)c(F)c2Nc2ccc(I)cc2F)o1 [Example 43, {5-[3,4-Difluoro-2-(2-fluoro-4-iodo-phenylamino)-phenyl]-[1,3,4]oxadiazol-2-yl}-methyl-(2-pyridin-4-yl-ethyl)-amine]		31.7%	26.6
COCCCNc1nnc(-c2ccc(F)c(F)c2Nc2ccc(I)cc2F)o1 [Example 20, {5-[3,4-Difluoro-2-(2-fluoro-4-iodo-phenylamino)-phenyl]-[1,3,4]oxadiazol-2-yl}-(3-methoxy-propyl)-amine]	80		
COc1ccc(OC)c(CCNc2nnc(-c3ccc(F)c(F)c3Nc3ccc(I)cc3F)o2)c1 [Example 41, {5-[3,4-Difluoro-2-(2-fluoro-4-iodo-phenylamino)-phenyl]-[1,3,4]oxadiazol-2-yl}-[2-(2,5-dimethoxy-phenyl)-ethyl]-amine]		29.8%	0
Fc1cc(I)ccc1Nc1c(-c2nnc(NCCCCN3CCCC3)o2)ccc(F)c1F [Example 63, {5-[3,4-Difluoro-2-(2-fluoro-4-iodo-phenylamino)-phenyl]-[1,3,4]oxadiazol-2-yl}-(4-pyrrolidin-1-yl-butyl)-amine]	23		
CCC(C)Nc1nnc(-c2ccc(F)c(F)c2Nc2ccc(I)cc2F)o1 (stereo not shown) [Example 46, sec-Butyl-{5-[3,4-difluoro-2-(2-fluoro-4-iodo-phenylamino)-phenyl]-[1,3,4]oxadiazol-2-yl}-amine]		31.6%	31.2
COCCNc1nnc(-c2ccc(F)c(F)c2Nc2ccc(I)cc2F)o1 [Example 33, {5-[3,4-Difluoro-2-(2-fluoro-4-iodo-phenylamino)-phenyl]-[1,3,4]oxadiazol-2-yl}-(2-methoxy-ethyl)-amine]		57.7%	0
CCOC(=O)CCNc1nnc(-c2ccc(F)c(F)c2Nc2ccc(I)cc2F)o1 [Example 58, 3-{5-[3,4-Difluoro-2-(2-fluoro-4-iodo-phenylamino)-phenyl]-[1,3,4]oxadiazol-2-ylamino}-propionic Acid Ethyl Ester]		17.8%	0
CC(C)(C)CNc1nnc(-c2ccc(F)c(F)c2Nc2ccc(I)cc2F)o1 [Example 47, {5-[3,4-Difluoro-2-(2-fluoro-4-iodo-phenylamino)-phenyl]-[1,3,4]oxadiazol-2-yl}-(2,2-dimethyl-propyl)-amine]		43.2%	18.9
CN1CCCC1CCNc1nnc(-c2ccc(F)c(F)c2Nc2ccc(I)cc2F)o1 (stereo not shown) [Example 62, {5-[3,4-Difluoro-2-(2-fluoro-4-iodo-phenylamino)-phenyl]-[1,3,4]oxadiazol-2-yl}-[2-(1-methyl-pyrrolidin-2-yl)-ethyl]-amine]		98.5%	53.7
Cn1cccc1CCNc1nnc(-c2ccc(F)c(F)c2Nc2ccc(I)cc2F)o1 [Example 52, {5-[3,4-Difluoro-2-(2-fluoro-4-iodo-phenylamino)-phenyl]-[1,3,4]oxadiazol-2-yl}-[2-(1-methyl-1H-pyrrol-2-yl)-ethyl]-amine]	86		
CN(C)CCCN(C)c1nnc(-c2ccc(F)c(F)c2Nc2ccc(I)cc2F)o1 [Example 12, N-{5-[3,4-Difluoro-2-(2-fluoro-4-iodo-phenylamino)-phenyl]-[1,3,4]oxadiazol-2-yl}-N,N′,N′-trimethyl-propane-1,3-diamine]	> 1000		
CN(C)CCCNc1nnc(-c2ccc(F)c(F)c2Nc2ccc(I)cc2F)o1 [Example 16, N-{5-[3,4-Difluoro-2-(2-fluoro-4-iodo-phenylamino)-phenyl]-[1,3,4]oxadiazol-2-yl}-N′,N′-dimethyl-propane-1,3-diamine]	136		
CCc1ccc(Nc2c(-c3nnc(N4CCN(CC)CC4)o3)ccc(F)c2F)c(F)c1 [Example 101, (4-Ethyl-2-fluoro-phenyl)-{6-[5-(4-ethyl-piperazin-1-yl)-1,3,4-oxadiazol-2-yl]-2,3-difluoro-phenyl}-amine]		47.1%	41.2
COCCN(CCOC)c1nnc(-c2ccc(F)c(F)c2Nc2ccc(I)cc2F)o1 [Example 66, {5-[3,4-Difluoro-2-(2-fluoro-4-iodo-phenylamino)-phenyl]-[1,3,4]oxadiazol-2-yl}-bis-(2-methoxy-ethyl)-amine]		12.5%	0
CCN(CC)CCCC(C)Nc1nnc(-c2ccc(F)c(F)c2Nc2ccc(I)cc2F)o1 (stereo not shown) [Example 64, N*4*-{5-[3,4-Difluoro-2-(2-fluoro-4-iodo-phenylamino)-phenyl]-[1,3,4]oxadiazol-2-yl}-N*1* ,N*1*-diethyl-pentane-1,4-diamine]		18.2%	0
CCN(CC)C1CCN(c2nnc(-c3ccc(F)c(F)c3Nc3ccc(I)cc3F)o2)C1 (stereo not shown) [Example 60, (1-{5-[3,4-Difluoro-2-(2-fluoro-4-iodo-phenylamino)-phenyl]-[1,3,4]oxadiazol-2-yl}-pyrrolidin-3-yl)-diethyl-amine]		68%	8.2
CCc1ccc(Nc2c(-c3nnc(N(C)CCCN(C)C)o3)ccc(F)c2F)c(F)c1 [Example 93, N^1-{5-[2-(4-Ethyl-2-fluoro-phenylamino)-3,4-difluoro-phenyl]-1,3,4-oxadiazol-2-yl}-N1,N>3,N>3-trimethyl-propane-1.3-diamine]		31.9%	0
Fc1cc(I)ccc1Nc1c(-c2nnc(NCCc3cccs3)o2)ccc(F)c1F [Example 38, {5-[3,4-Difluoro-2-(2-fluoro-4-iodo-phenylamino)-phenyl]-[1,3,4]oxadiazol-2-yl}-(2-thiophen-2-yl-ethyl)-amine]		65.1%	0
C=CCN(CC=C)c1nnc(-c2ccc(F)c(F)c2Nc2ccc(CC)cc2F)o1 [Example 83, Diallyl-{5-[2-(4-ethyl-2-fluoro-phenylamino)-3,4-difluoro-phenyl]-1,3,4-oxadiazol-2-yl}-amine]		77.9%	65.6

Reference: patent US20050004186A1, “MEK inhibiting compounds” (Pfizer Inc, priority 2002, published 2005)
